Measurements taken from patent US5470877A, “Uses of perillic acid methyl ester” (Wisconsin Alumni Research Foundation, priority 1994, dated 1995).
pIC50: −log10 of the molar value. Entries after “also recorded” stand apart in the source; their conditions may differ.

Assays:
HT29 cells [1] = assay: Inhibition of HT29 colon adenocarcinoma cell growth/proliferation; format: cell-based, human
Experimental: (§1) We examined the effect of several of the terpenes on certain types of cell growth. […] Additionally, growth of HT29 (human colon adenocarcinoma) cells was inhibited by 80% by 1 mM perillyl alcohol.

HT29 cells [2] = assay: Protein isoprenylation in HT29 cells; format: cell-based, human
[3] = Tolerability in nude mice (National Cancer Institute); format: in vivo
Experimental: In an extension of our work, the National Cancer Institute has studied the effect of perillyl alcohol doses in nude mice using an oral bid ×14 day schedule. […] Perillyl alcohol was also administered in PEG400 at the same dose levels.

M600B cells = assay: M600B cell growth inhibition (FIG. 4); format: cell-based; details: M600B (human) cells
Experimental: NIH3T3 (mouse embryo) cells were obtained from the American Type Culture Collection and were grown in Dulbecco's modified Eagle's medium supplemented with 10% calf serum. M600B immortalized human mammary epithelial cells (Stampfer, M.R., 1985, J. Tissue Culture Methods 9:107-115) were, obtained from Dr. Martha Stampfer and were grown in supplemented HCDB 170 medium (Hammond, et al. (1984) Proc. Natl. Acad. Sci U.S.A. 81:5435-5439), as described previously (Stampfer, et al. (1985) Proc. Natl. Acad. Sci U.S.A. 82:2394-2398; Eldridge, et al. (1989) Cancer Res. 49:4326-4331).
All cells were maintained in 100-mm dishes at 37° C. in a humidified 5% CO2 atmosphere. Viable cells were distinguished from nonviable cells by counting azure II/methylene blue-stained colonies 10 days after the cells were plated at a density of 100 cells per dish. Trypan blue exclusion was measured by incubating cells for 1 min with one drop of trypan blue per 10 ml of cells. Viable (colorless) and nonviable (blue) cells were then counted on a hemocytometer.
as §1

[4] = Plasma metabolite identification and quantitation in rats; format: in vivo, Wistar-Furth rat; details: for DHPA (% total) / DHPAME (% total) / LIM/POH (% total) / PA (% total) / PAME (% total) / mM LIM/POH: plasma
Experimental: Control animals received oil alone. At the chosen time points, rats were anesthetized with ether and blood was collected into heparinized tubes (Heparin (Sigma, Grade II), at 20 mg/ml in 0.9% saline). Plasma was removed following centrifugation and stored at -20° C.
For quantitation of chronic plasma metabolite levels of perillyl alcohol, female WF rats were housed individually and fed fresh diet daily. The afternoon before blood collection, all rats were given approximately 20 grams of the appropriate diet and allowed to eat ad. libitum for 18 hours. Food consumption data was determined the next morning and the rats were bled within 2 hours following food removal.
Briefly, 5 μl of a 10 mM solution of perillaldehyde was added to 50 μl plasma as an internal standard for quantitation. The plasma was mixed with an equal volume of n-butanol:acetonitrile (1:1, v/v), after which another volume of saturated potassium phosphate was added. After vortexing, the samples were centrifuged and the organic layer removed from the top.
Plasma extracts were analyzed using a Hewlett-Packard 5891 gas chromatograph equipped with a flame-ionization detector or a Hewlett-Packard 5890 chromatograph equipped with a 5971A mass-selective detector, both with 30 m Supelco SPB-5 columns. The temperature program was 90° C. for 4 minutes, increasing by 10° C./minute, followed by 15 minutes at 275° C. The split ratio was 1:10 and the linear velocity was 1.1 ml/minute. Standard curves were generated by adding 5 μl rat plasma. Standards were then extracted and analyzed by capillary gas chromatography. The ratio of the terpene peak area/perillaldehyde peak area versus the concentration of terpene in the sample was plotted.

[5] = Acute oral toxicity in rats; format: in vivo, Wistar-Furth rat; details: 1:1 sesame oil
Experimental: When POH was given in an acute manner (a single oral dose, 1:1 mix with sesame oil, for 5 days), the following was observed: After 300 mg total POH dose, 2 out of 5 rats died within 24 hours. After a 200 mg total POH dose, 2 out of 5 rats died within 24 hours. After a 100 mg total POH dose, 5 out of 5 rats tolerated 5 days with weight loss.

human cancer cell lines = assay: Growth of human cancer cell lines (NCI Developmental Therapeutics Program, FIG. 5); format: cell-based; details: various concentrations
Experimental: Various concentrations of perillyl alcohol caused the regression of a number of human cancer cell lines. FIG. 5 is a set of diagrams showing the effects of perillyl alcohol on different cancer cell lines. These experiments were conducted by the National Cancer Institute Developmental Therapeutics Program.

[6] = chronic week 3, 10% LIM or 2% POH diet
[7] = chronic week 5, 10% LIM or 2% POH diet
[8] = chronic week 10, 10% LIM or 2% POH diet

C=C(C)[C@@H]1CC=C(CO)CC1 [perillyl alcohol]
Rank order, inhibition of HT-29 tumor cell proliferation (HT29 cells [1]; 1 = greatest inhibition, 5 = least inhibition): 1 | pIC50 (HT29 cells [1]; Homo sapiens, HT-29, read-out: IC50 HT29 tumor cell proliferation): 4.30 | inhibition at 1000 µM (HT29 cells [1]; Homo sapiens, HT-29, read-out: growth inhibition of HT29 cells): 80% | HT29 cell growth (HT29 cells [1]; colon adenocarcinoma cells): regression of cell growth | differential isoprenylation in HT29 (HT29 cells [2]): differential isoprenylation | weight loss ([3]; 0.5 g/kg/treatment oral bid, sesame oil): No weight loss | course of weight loss ([3]; 1.0 gram/kg/treatment oral bid, after day 10): the weight loss leveled off | average body weight lost ([3]; 1.0 gram/kg/treatment oral bid, diluted 1:1 in sesame oil, day 10): 3 g | lethality ([3]; in PEG400, same dose levels): Lethality was observed | inhibition of cell growth (M600B cells): significantly inhibited cell growth in a dose-dependent manner | parent detection in plasma ([4]; acute gavage, any time point including 30 minutes): not detected at any time point including 30 minutes post-gavage | major metabolite detected ([4]; acute gavage, rat): perillic acid | perillic and dihydroperillic acids in plasma ([4]; acutely administered, rat): detectable at 24 hours post-administration | parent compound in plasma ([4]; chronically fed rats): Neither limonene nor perillyl alcohol was detected | DHPA (% total) ([4]; acute 1 g/kg, 4 hour): 5 % total | DHPAME (% total) ([4]; acute 1 g/kg, 4 hour): < 1 % total | LIM/POH (% total) ([4]; acute 1 g/kg, 4 hour): 0 % total | PA (% total) ([4]; acute 1 g/kg, 4 hour): 71 % total | PAME (% total) ([4]; acute 1 g/kg, 4 hour): 24 % total | mM LIM/POH ([4]; acute 1 g/kg, 4 hour, mean ± SEM): 0.00 ± 0.00 mM | DHPA (% total) [4, 6]: 19 % total | DHPAME (% total) [4, 6]: 2 % total | LIM/POH (% total) [4, 6]: 0 % total | PA (% total) [4, 6]: 69 % total | PAME (% total) [4, 6]: 10 % total | mM LIM/POH [4, 6]: 0 mM | DHPA (% total) [4, 7]: 25 % total | DHPAME (% total) [4, 7]: 3 % total | LIM/POH (% total) [4, 7]: 0 % total | PA (% total) [4, 7]: 62 % total | PAME (% total) [4, 7]: 10 % total | mM LIM/POH [4, 7]: 0 mM | DHPA (% total) [4, 8]: 28 % total | DHPAME (% total) [4, 8]: 4 % total | LIM/POH (% total) [4, 8]: 0 % total | PA (% total) [4, 8]: 59 % total | PAME (% total) [4, 8]: 10 % total | mM LIM/POH [4, 8]: 0 mM | rate of conversion to metabolites ([4]; rat): rapidly metabolized to the same metabolites as limonene; also recorded: more rapidly converted to metabolites than limonene | major plasma metabolites ([4]; rat, 1 g/kg gavage, 4 hours): perillic acid and dihydroperillic acid | minor plasma metabolites ([4]; rat, 1 g/kg gavage, 4 hours): minor levels of these acids' methyl esters | rats that tolerated 5 days with weight loss ([5]; 100 mg total POH dose): 5 out of 5 | rats died within 24 hours ([5]; 200 mg total POH dose): 2 out of 5 | rats died within 24 hours ([5]; 300 mg total POH dose): 2 out of 5 | effect on human cancer cell growth (human cancer cell lines): inhibited cancer cell growth
